Data on ten compounds can be found in EP4806904A1, “POLYPEPTIDE AND USE THEREOF” (Sichuan Gooddoctor Panxi Pharmaceutical Co. Ltd, priority 2023, dated 2026).

Where a SMILES comes first, the peptide text is derived from it. [ ]: non-standard residue; d: D form.

Assay [1] concerns primary neural stem cells (NSCs). As to the kind of experiment: Differentiation of primary neural stem cells, βIII-tubulin fluorescence and Neurite Outgrowth Assay. It counts as cell-based, SD rats. As to conditions: 100 µg/mL, 4 days; for mean fluorescence intensity of the neuronal marker protein βIII-tubulin: vs blank control group; for mean fluorescence intensity of the neuronal marker protein βIII-tubulin / neurite outgrowth (total neurite length, maximum neurite length, neurite terminals, neurite initiation points): in words; for neurite outgrowth (total neurite length, maximum neurite length, neurite terminals, neurite initiation points): Neurite Outgrowth Assay. As for the experimental part:
This part of the experiment requires feeding male and female rats in advance, then extracting hippocampal neural stem cells from newborn SD rats within 24 h of birth, culturing them to P3 for identification, and then using them for experiments. • (1) Extraction and culture of primary neural stem cells (NSCs) • (2) NSCs that have been passaged to P3 and have good viability were seeded in differentiation medium (2% FBS+DMEM/F12 1:1 medium) in 48-well plates with a cell concentration of 5×10^4 cells/mL per well. After overnight culture for cell adherence, the cells were treated with drugs; • (3) Drug treatment was applied. The final concentration of the polypeptide of the invention was 100 µg/mL. Meanwhile, nerve growth factor (NGF, 50 ng/mL) was set as the positive control, and the cells were cultured in the incubator for another 4 days; • (4) Immunofluorescence staining (primary antibody βIII-tubulin) was performed after 4 days of treatment. The average fluorescence intensity of βIII-tubulin was analyzed and the Neurite Outgrowth Assay was performed using a high-content cell imaging analysis system.

The test system of assay [2] is Brain microvascular endothelial cells (BMECs) and brain microvascular smooth muscle cells (BMVSMCs). As to the kind of experiment: In vitro angiogenesis assay, BMEC/BMVSMC co-culture on matrigel. It is filed as cell-based, mouse. As to conditions: 0.1 mg/L, 48 h. As for the experimental part: First, mouse brain microvascular pellets were obtained by differential centrifugation. Brain microvascular endothelial cells (BMECs) and brain microvascular smooth muscle cells (BMVSMCs) were isolated by digestion with collagenase II, respectively, and cultured in a cell incubator with 5% CO2 at 37°C . Cells at passages 3-6 in good growth condition and logarithmic growth phase were selected for the in vitro angiogenesis assay.
One night before the experiment, the high-concentration matrigel was transferred from a -20°C or -80°C refrigerator to a 4°C refrigerator and allowed to thaw slowly overnight in the 4°C refrigerator. Pipette tips required for the formal experiment were sterilized in advance and pre-cooled in a 4°C refrigerator for subsequent use.
On the day of the experiment, the matrigel was added to a 96-well plate 1 h in advance and placed in a 37°C cell incubator until it solidified. Subsequently, the cells were washed 2 times with 2 mL of PBS buffer, followed by digestion with 0.25% trypsin to obtain EC and VSMC pellets, respectively, and cell counting was performed. A uniform cell suspension containing 5×10^3 BMVSMCs and 1×10^3 BMECs per well was then seeded into the 96-well plate pre-coated with the matrigel, and cultured in a 37°C, 5% CO2 cell incubator for 3 days.
During the culture period, tube formation was observed daily. The medium was changed on day 4, followed by treatment with the polypeptide of the invention at 0.1 mg/L or VEGFA at 10/15/20 ng/L for 48 h, respectively.
On day 5, the cell nuclei and live cells were labeled with Hoechst 33342 and Calcein AM, respectively. High-content brightfield and fluorescence imaging were then performed using a high-content screening system. Finally, angiogenesis in each treatment group was analyzed using the Angiogenesis Analyzer plugin for ImageJ, and statistical analysis was carried out with GraphPad Prism 10.

The mark [3] stands for this setting: significance vs blank control group.

With `CC(C)C[C@H](NC(=O)[C@@H](NC(=O)CNC(=O)[C@@H]1CCCN1C(=O)[C@H](C)NC(=O)[C@@H]1CCCN1C(=O)[C@H](CC(C)C)NC(=O)[C@@H](C)N)[C@@H](C)O)C(=O)O` [Compound 2, H-D-Ala-Leu-Pro-Ala-Pro-Gly-Thr-Leu-OH] (H-[dA]LPAPGTL-OH), in assay [1] (setting [3]), the Longest neurite length result is on record as “** (**p < 0.01)”, the “Neurite initiation points (branches)” value was “* (*p < 0.05)”, the “Number of neurite terminals” value is reported as “** (**p < 0.01)” and the Total neurite length result is listed as “** (**p < 0.01)”. Moreover, in assay [2] (setting [3]), the Branch length result was “*** (***p < 0.001)”, the Cell count entry is reported as “* (*p < 0.05)” and the Number of intersections result is “** (**p < 0.01)”. In assay [2] (vs normal group, in words), the angiogenesis-promoting effects result is “exhibited angiogenesis-promoting effects”.
Turning to `CC(C)C[C@H](NC(=O)[C@@H](NC(=O)CNC(=O)[C@@H]1CCCN1C(=O)[C@H](C)NC(=O)[C@H]1CCCN1C(=O)[C@H](CC(C)C)NC(=O)[C@H](C)N)[C@@H](C)O)C(=O)O` [Compound 4, H-Ala-Leu-D-Pro-Ala-Pro-Gly-Thr-Leu-OH] (H-AL[dP]APGTL-OH), in assay [1] (setting [3]), the Longest neurite length result is reported as “*** (***p < 0.001)”, the “Neurite initiation points (branches)” value is on record as “** (**p < 0.01)”, the “Number of neurite terminals” value is “** (**p < 0.01)” and the Total neurite length entry is “** (**p < 0.01)”. For the same compound, the Cell count entry in assay [2] (setting [3]) is listed as “* (*p < 0.05)”. For the same compound, the cell proliferation entry in assay [2] (vs normal group, in words) is “only promoted cell proliferation”.
Consider “Ac-ALPAPGTL-OH [Compound 9, Ac-Ala-Leu-Pro-Ala-Pro-Gly-Thr-Leu-OH]”, for which the Branch length entry in assay [2] (setting [3]) is “* (*p < 0.05)”. For the same compound, in assay [2] (vs normal group, in words), the Branch length entry is “promoting effects” and the number of junctions result was “no significant effects”.
In the case of “H-AKNQLPAPGTLQHFC-OH [Compound 24, H-Ala-Lys-Asn-Gln-Leu-Pro-Ala-Pro-Gly-Thr-Leu-Gln-His-Phe-Cys-OH]”, the “Neurite initiation points (branches)” value in assay [1] (setting [3]) was “* (*p < 0.05)”. Also, in assay [1], the “mean fluorescence intensity of the neuronal marker protein βIII-tubulin” value (“mean fluorescence intensity” below) is “significant increase”. In assay [1] (βIII-tubulin, significance vs blank control group), the Average fluorescence intensity result is reported as “* (*p < 0.05)”.
Regarding “H-ALGAPGTL-OH [Compound 14, H-Ala-Leu-Gly-Ala-Pro-Gly-Thr-Leu-OH]”, in assay [2] (setting [3]), the Cell count entry is on record as “* (*p < 0.05)” and the Number of intersections result is listed as “* (*p < 0.05)”. For the same compound, in assay [2] (vs normal group, in words), the Branch length entry is given as “no significant effects” and the number of junctions result is listed as “promoting effects”.
Turning to “H-ALPAPGT-OH [Compound 39, H-Ala-Leu-Pro-Ala-Pro-Gly-Thr-OH]”, in assay [2] (setting [3]), the Branch length result was “** (**p < 0.01)”, the Cell count result was “* (*p < 0.05)” and the Number of intersections entry is reported as “** (**p < 0.01)”. Further, in assay [2] (vs normal group, in words), the angiogenesis-promoting effects entry is on record as “exhibited angiogenesis-promoting effects”.
Take “H-LPAPG-OH [Compound 33, H-Leu-Pro-Ala-Pro-Gly-OH]”: in assay [2] (setting [3]), the Branch length entry was “** (**p < 0.01)”, the Cell count result is on record as “** (**p < 0.01)” and the Number of intersections result is listed as “** (**p < 0.01)”. Besides, the angiogenesis-promoting effects result in assay [2] (vs normal group, in words) is reported as “exhibited angiogenesis-promoting effects”.
Consider “H-LPAPGTL-OH [Compound 29, H-Leu-Pro-Ala-Pro-Gly-Thr-Leu-OH]”, for which the “mean fluorescence intensity” value in assay [1] is on record as “tendency to enhance”.
In the case of “H-PAPGT-OH [Compound 27, H-Pro-Ala-Pro-Gly-Thr-OH]”, in assay [1], the “neurite outgrowth (total neurite length, maximum neurite length, neurite terminals, neurite initiation points)” value is listed as “promote neurite outgrowth”. Further, in assay [1] (setting [3]), the Longest neurite length result is “** (**p < 0.01)”, the “Neurite initiation points (branches)” value is given as “** (**p < 0.01)”, the “Number of neurite terminals” value is recorded as “* (*p < 0.05)” and the Total neurite length result was “* (*p < 0.05)”.
In the case of “H-PIASQHLNLAPAPGTI-OH [Compound 23, H-Pro-Ile-Ala-Ser-Gln-His-Leu-Asn-Leu-Ala-Pro-Ala-Pro-Gly-Thr-Ile-OH]”, in assay [1], the “neurite outgrowth (total neurite length, maximum neurite length, neurite terminals, neurite initiation points)” value was “tendency to promote neurite outgrowth” and the “mean fluorescence intensity” value was “tendency to enhance”. For the same compound, in assay [1] (setting [3]), the “Number of neurite terminals” value is “* (*p < 0.05)” and the Total neurite length result is “* (*p < 0.05)”.
